Assay results reported in the NIST ThermoML archive (doi:10.1016/j.jct.2011.10.001).

Test: molar heat capacity at constant pressure
Conditions: 101.33 kPa, Vacuum adiabatic calorimetry

CCCC(=O)OC [methyl butanoate]
molar heat capacity at constant pressure [J/K/mol]
Conditions	Crystal	Liquid
130 K	99.17	–
131.79 K	100.55	–
133.79 K	101.43	–
135.8 K	102.27	–
137.8 K	103.03	–
139.79 K	103.9	–
140 K	103.65	–
141.79 K	104.89	–
143.79 K	105.51	–
145.78 K	106.36	–
147.78 K	107.25	–
149.77 K	107.92	–
150 K	108.14	–
151.89 K	109.06	–
153.86 K	109.91	–
155.85 K	110.69	–
157.83 K	111.73	–
159.81 K	112.47	–
160 K	112.62	–
161.79 K	113.29	–
163.77 K	114.29	–
165.74 K	115.26	–
167.72 K	116.18	–
169.56 K	116.65	–
170 K	117.11	–
171.52 K	117.81	–
173.49 K	119.09	–
175.45 K	120.75	–
177.41 K	122.58	–
179.36 K	125.17	–
180 K	121.59	–
181.29 K	129.69	–
183.2 K	139.88	–
185.04 K	158.37	–
186.78 K	216.75	–
188.21 K	448.34	–
189.16 K	1561.8	–
189.7 K	8659.7	–
190 K	126.08	–
190.09 K	126.12	184.56
191.08 K	185.22	–
192.79 K	–	184.74
194.49 K	–	184.98
196.18 K	–	185.21
197.88 K	–	185.04
199.57 K	–	185.15
200 K	–	185.19
201.25 K	–	185.01
202.85 K	–	185.47
202.93 K	–	185.15
204.61 K	–	185.47
204.73 K	–	185.64
206.27 K	–	185.39
206.69 K	–	185.68
207.94 K	–	185.44
208.64 K	–	186
210 K	–	185.83
210.58 K	–	186.03
212.53 K	–	186
214.48 K	–	186.17
216.42 K	–	186.44
218.37 K	–	186.11
220 K	–	186.51
220.31 K	–	186.33
222.24 K	–	186.86
224.17 K	–	186.8
226.1 K	–	186.88
228.02 K	–	187.23
229.93 K	–	187.61
230 K	–	187.52
231.85 K	–	187.86
233.68 K	–	187.83
235.58 K	–	188.04
237.48 K	–	188.4
239.37 K	–	188.78
240 K	–	188.78
241.26 K	–	188.74
243.14 K	–	189.23
245.01 K	–	189.8
246.89 K	–	190.04
248.76 K	–	190.11
250 K	–	190.21
250.62 K	–	190.43
252.49 K	–	190.56
254.35 K	–	190.93
256.2 K	–	190.97
258.06 K	–	191.41
259.91 K	–	191.46
260 K	–	191.68
261.76 K	–	191.67
263.49 K	–	192.11
265.34 K	–	192.17
267.17 K	–	192.77
269.01 K	–	193.06
270 K	–	193.16
270.85 K	–	193.64
272.68 K	–	194.01
274.5 K	–	193.7
276.33 K	–	194.03
278.16 K	–	194.27
279.98 K	–	194.58
280 K	–	194.68
281.79 K	–	195.04
283.59 K	–	195.25
285.4 K	–	195.54
287.19 K	–	195.76
288.98 K	–	196.51
290 K	–	196.51
290.74 K	–	196.84
292.33 K	–	196.73
294.09 K	–	197.27
295.83 K	–	197.8
297.59 K	–	198
298.15 K	–	198.08
299.34 K	–	198.43
300 K	–	198.44
301.06 K	–	198.72
302.76 K	–	198.98
304.45 K	–	199.24
306.14 K	–	199.38
307.81 K	–	199.85
309.48 K	–	200.31
310 K	–	200.39
311.13 K	–	200.58
312.78 K	–	200.66
314.42 K	–	201.21
316.05 K	–	201.68
317.67 K	–	201.91
318.97 K	–	202.28
320 K	–	202.43
320.57 K	–	202.72
322.17 K	–	203.14
323.75 K	–	203.27
325.32 K	–	203.68
326.89 K	–	204.18
328.44 K	–	204.41
329.98 K	–	204.65
330 K	–	204.68
331.51 K	–	204.84
333.03 K	–	205.34
334.54 K	–	205.78
336.04 K	–	206.3
337.49 K	–	206.62
338.96 K	–	206.61
340 K	–	207.21
340.42 K	–	207.11
341.87 K	–	207.49
342.87 K	–	207.85
344.3 K	–	208.38
345.71 K	–	208.82
347.12 K	–	209.31
348.51 K	–	209.73
349.89 K	–	209.95
350 K	–	210.03
351.26 K	–	210.42
352.61 K	–	210.86
353.95 K	–	211.39
355.28 K	–	211.75
356.6 K	–	211.91
357.9 K	–	212.69
359.2 K	–	212.83
360 K	–	213
360.47 K	–	213.07
361.74 K	–	213.3
362.99 K	–	214.05
363.57 K	–	213.92
364.8 K	–	214.49
366.02 K	–	214.53
367.22 K	–	214.65
368.41 K	–	215.35
369.58 K	–	215.99
370 K	–	215.8
370.75 K	–	216.01
371.9 K	–	216.31
